These are literature values, as cited in patent publication US8557989B2, “Electrochemical affinity biosensor system and methods” (priority 2003, dated 2013).

This data set concerns the target glucose oxidase (Aspergillus niger, UniProt P13006). The conditions noted are these: with glucose oxidase.

Chain of glucose oxidase (P13006 17-605): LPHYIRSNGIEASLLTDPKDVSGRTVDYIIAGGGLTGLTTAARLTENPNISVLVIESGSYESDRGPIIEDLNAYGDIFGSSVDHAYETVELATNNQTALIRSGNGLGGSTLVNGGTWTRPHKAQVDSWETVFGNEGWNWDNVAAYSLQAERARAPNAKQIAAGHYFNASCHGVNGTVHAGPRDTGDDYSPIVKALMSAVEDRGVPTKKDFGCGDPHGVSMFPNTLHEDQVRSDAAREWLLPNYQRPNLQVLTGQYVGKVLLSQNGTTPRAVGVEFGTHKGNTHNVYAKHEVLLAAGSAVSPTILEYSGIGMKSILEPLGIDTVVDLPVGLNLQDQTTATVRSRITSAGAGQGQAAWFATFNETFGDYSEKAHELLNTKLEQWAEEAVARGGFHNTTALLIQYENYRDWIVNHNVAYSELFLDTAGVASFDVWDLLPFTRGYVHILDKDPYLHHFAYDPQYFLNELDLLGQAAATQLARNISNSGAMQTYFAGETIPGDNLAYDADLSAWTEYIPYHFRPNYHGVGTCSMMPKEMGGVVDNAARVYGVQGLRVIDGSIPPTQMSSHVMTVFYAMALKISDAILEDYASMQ

Turning to “bis(2,2′-bipyridyl) imidazole chloro osmium (III) dichloride [osmium free mediator]”, the “mediation kinetics, times faster than ferricyanide” value is given as “about 500 times”.
